Experimental data from ChEMBL document CHEMBL1151073, “Substituted 1,3,5-triazines as cholesteryl ester transfer protein inhibitors” (Bioorg Med Chem Lett, 1996).
pIC50: −log10 of the molar value.

The compounds below were run against T1, Cholesteryl ester transfer protein (Homo sapiens, UniProt P11597) (assay: Inhibition of Cholesteryl ester transfer protein).
T1 sequence (P11597 whole entry): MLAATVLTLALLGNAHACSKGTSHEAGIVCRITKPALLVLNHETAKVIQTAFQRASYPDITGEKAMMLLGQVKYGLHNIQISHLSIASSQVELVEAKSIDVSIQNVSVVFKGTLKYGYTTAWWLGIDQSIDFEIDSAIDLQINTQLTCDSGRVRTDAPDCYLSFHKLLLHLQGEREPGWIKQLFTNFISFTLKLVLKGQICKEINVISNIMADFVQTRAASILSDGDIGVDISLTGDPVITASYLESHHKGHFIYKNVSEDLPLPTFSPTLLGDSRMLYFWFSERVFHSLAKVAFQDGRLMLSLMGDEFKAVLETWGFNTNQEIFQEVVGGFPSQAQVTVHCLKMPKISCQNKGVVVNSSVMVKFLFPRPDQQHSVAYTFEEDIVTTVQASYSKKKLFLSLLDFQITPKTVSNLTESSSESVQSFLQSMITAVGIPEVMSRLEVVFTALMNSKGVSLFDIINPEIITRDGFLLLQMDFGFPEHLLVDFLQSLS

pIC50 | Compound
5.30 | Clc1ccc(N2CCN(c3nc(N4CCNCC4)nc(N4CCc5ccccc5C4)n3)CC2)cc1
5.22 | CN(CCc1ccccc1)c1nc(N2CCNCC2)nc(N2CCN(c3ccc(Cl)cc3)CC2)n1
5.30 | Clc1ccc(N2CCN(c3nc(Cc4ccc5ccccc5c4)nc(N4CCNCC4)n3)CC2)cc1
4.68 | Oc1ccc(CCNc2nc(N3CCNCC3)nc(N3CCN(c4ccc(Cl)cc4)CC3)n2)cc1O
5.00 | Clc1ccc(N2CCN(c3nc(N/N=C/c4ccccc4)nc(N4CCNCC4)n3)CC2)cc1
5.05 | Clc1ccc(N2CCN(c3nc(Cc4ccccc4)nc(N4CCNCC4)n3)CC2)cc1

Further lines, the compound ahead of its results:

Compound | pIC50
Clc1ccc(N2CCN(c3nc(C#Cc4ccccc4)nc(N4CCNCC4)n3)CC2)cc1 | 4.92
Clc1ccc(N2CCN(c3nc(NCCc4ccccc4)nc(N4CCNCC4)n3)CC2)cc1 | 4.35
COc1ccc(CCNc2nc(N3CCNCC3)nc(N3CCN(c4ccc(Cl)cc4)CC3)n2)cc1O | 4.80
Clc1ccc(N2CCN(c3nc(-c4ccccc4)nc(N4CCNCC4)n3)CC2)cc1 | 4.96
Clc1ccc(Cc2nc(N3CCNCC3)nc(N3CCN(c4ccc(Cl)cc4)CC3)n2)cc1 | 5.05
CCCCc1nc(N2CCNCC2)nc(N2CCN(c3ccc(Cl)cc3)CC2)n1 | 4.96

These compounds were tested against T2, Cholesteryl ester transfer protein (Homo sapiens) (UniProt P11597) (assay: Compound was tested for inhibitory activity against Cholesteryl ester transfer protein at 50 uM).
T2 sequence (whole entry): T1 sequence (P11597 whole entry)

inhibition [%] | Compound
11 | Oc1nc(N2CCNCC2)nc(N2CCN(c3ccc(Cl)cc3)CC2)n1
66 | Clc1ccc(N2CCN(c3nc(OCCc4ccccc4)nc(N4CCNCC4)n3)CC2)cc1
37 | Clc1ccc(N2CCN(c3nc(Cl)nc(N4CCNCC4)n3)CC2)cc1
14 | Clc1ccc(N2CCN(c3ncnc(N4CCNCC4)n3)CC2)cc1

The next lines start with the compound.

Compound | inhibition [%]
CCCCOc1nc(N2CCNCC2)nc(N2CCN(c3ccc(Cl)cc3)CC2)n1 | 57
C=Cc1nc(N2CCNCC2)nc(N2CCN(c3ccc(Cl)cc3)CC2)n1 | 48
Clc1ccc(N2CCN(c3nc(NCc4ccccc4)nc(N4CCNCC4)n3)CC2)cc1 | 52
